In patent US10968462B2, “Plants having increased tolerance to herbicides” (BASF AGRO B.V., priority 2013, dated 2021):

Tested on: transgenic T2 soybean plants
Assay: Soybean greenhouse spray test, T2 plants at V2-V3 stage, injury 0-9 point scale 1 or 2 weeks after treatment (Tables 7C-7E)
Format: in vivo, Glycine max
Conditions: 2 week after treatment
Method: Soybean cv Jake was transformed as previously described by Siminszky et al., Phytochem Rev. 5:445-458 (2006). After regeneration, transformants were transplanted to soil in small pots, placed in growth chambers (16 hr day/8 hr night; 25° C. day/23° C. night; 65% relative humidity; 130-150 microE m-2 s-1) and subsequently tested for the presence of the T-DNA via Taqman analysis. After a few weeks, healthy, transgenic positive, single copy events were transplanted to larger pots and allowed to grow in the growth chamber. An optimal shoot for cutting was about 3-4 inches tall, with at least two nodes present. Each cutting was taken from the original transformant (mother plant) and dipped into rooting hormone powder (indole-3-butyric acid, IBA). The cutting was then placed in oasis wedges inside a bio-dome. The mother plant was taken to maturity in the greenhouse and harvested for seed. Wild type cuttings were also taken simultaneously to serve as negative controls. The cuttings were kept in the bio-dome for 5-7 days and then transplanted to 3 inch pots and then acclimated in the growth chamber for two more days. […] Other herbicides, such as AHAS (ALS—Acetolactate Synthase) inhibiting herbicides were also tested in a similar fashion for confirming cross resistance to other modes of action: Tritosulfuron, Florasulam, Metsulfuron, Rimsulfuron. Herbicide injury evaluations were taken at 2, 7, 14 and 21 days after treatment.
• 0 No Injury • 1 Minimal injury, only a few patches of leaf injury or chlorosis. • 2 Minimal injury with slightly stronger chlorosis. Overall growth points remain undamaged. • 3 Slightly stronger injury on secondary leaf tissue, but primary leaf and growth points are still undamaged. • 4 Overall plant morphology is slightly different, some chlorosis and necrosis in secondary growth points and leaf tissue. Stems are intact. Regrowth is highly probable within 1 week. • 5 Overall plant morphology is clearly different, some chlorosis and necrosis on a few leaves and growth points, but primary growth point is intact. Stem tissue is still green. Regrowth is highly probably within 1 week. • 6 Strong injury can be seen on the new leaflet growth. Plant has a high probability to survive only through regrowth at different growth points. Most of the leaves are chlorotic/necrotic but stem tissue is still green. May have regrowth but with noticeable injured appearance. • 7 Most of the active growth points are necrotic. There may be a single growth point that could survive and may be partially chlorotic or green and partially necrotic. Two leaves may still be chlorotic with some green; the rest of the plant including stem is necrotic. • 8 Plant will likely die, and all growth points are necrotic. One leaf may still be chlorotic with some green. The remainder of the plant is necrotic. • 9 Plant is dead. • * Not tested

COc1nc(C)nc(=NC(=O)NS(=O)(=O)c2ccccc2C(=O)O)[nH]1 [Metsulfuron]
injury on a 0-9 point scale (Bradi_1g07930.1 (Event 1), 1.05 g ai/ha): 1.0 | injury on a 0-9 point scale (Bradi_1g07930.1 (Event 1), 2.1 g ai/ha): 0.7 | injury on a 0-9 point scale (Bradi_1g07930.1 (Event 1), 4.2 g ai/ha): 2.3 | injury on a 0-9 point scale (Bradi_1g07930.1 (Event 1), 8.4 g ai/ha): 3.3 | injury on a 0-9 point scale (R128A_F420V (Event 1), 1.05 g ai/ha): 8.0 | injury on a 0-9 point scale (R128A_F420V (Event 1), 2.1 g ai/ha): 8.0 | injury on a 0-9 point scale (R128A_F420V (Event 1), 4.2 g ai/ha): 8.0 | injury on a 0-9 point scale (R128A_F420V (Event 1), 8.4 g ai/ha): 8.7 | injury on a 0-9 point scale (R128A_F420V (Event 2), 1.05 g ai/ha): 8.0 | injury on a 0-9 point scale (R128A_F420V (Event 2), 2.1 g ai/ha): 9.0 | injury on a 0-9 point scale (R128A_F420V (Event 2), 4.2 g ai/ha): 8.7 | injury on a 0-9 point scale (R128A_F420V (Event 2), 8.4 g ai/ha): 9.0 | injury on a 0-9 point scale (R128A_F420V + Bradi_1g07930.1 (Event 1), 1.05 g ai/ha): 2.7 | injury on a 0-9 point scale (R128A_F420V + Bradi_1g07930.1 (Event 1), 2.1 g ai/ha): 3.0 | injury on a 0-9 point scale (R128A_F420V + Bradi_1g07930.1 (Event 1), 4.2 g ai/ha): 4.0 | injury on a 0-9 point scale (R128A_F420V + Bradi_1g07930.1 (Event 1), 8.4 g ai/ha): 4.3 | injury on a 0-9 point scale (R128A_F420V + Bradi_1g07930.1 (Event 2), 1.05 g ai/ha): 3.0 | injury on a 0-9 point scale (R128A_F420V + Bradi_1g07930.1 (Event 2), 2.1 g ai/ha): 3.7 | injury on a 0-9 point scale (R128A_F420V + Bradi_1g07930.1 (Event 2), 4.2 g ai/ha): 3.0 | injury on a 0-9 point scale (R128A_F420V + Bradi_1g07930.1 (Event 2), 8.4 g ai/ha): 3.0 | injury on a 0-9 point scale (wild type, 1.05 g ai/ha): 8.5 | injury on a 0-9 point scale (wild type, 2.1 g ai/ha): 8.3 | injury on a 0-9 point scale (wild type, 4.2 g ai/ha): 8.8 | injury on a 0-9 point scale (wild type, 8.4 g ai/ha): 8.5

CCS(=O)(=O)c1cccnc1S(=O)(=O)NC(=O)Nc1nc(OC)cc(OC)n1 [Rimsulfuron]
injury on a 0-9 point scale (Bradi_1g07930.1 (Event 1), 10 g ai/ha): 6.0 | injury on a 0-9 point scale (Bradi_1g07930.1 (Event 1), Rimsulfuron 1.25 g ai/ha): 6.0 | injury on a 0-9 point scale (Bradi_1g07930.1 (Event 1), Rimsulfuron 2.5 g ai/ha): 6.0 | injury on a 0-9 point scale (Bradi_1g07930.1 (Event 1), Rimsulfuron 5 g ai/ha): 6.0 | injury on a 0-9 point scale (R128A_F420V (Event 1), 10 g ai/ha): 7.5 | injury on a 0-9 point scale (R128A_F420V (Event 1), Rimsulfuron 1.25 g ai/ha): 6.5 | injury on a 0-9 point scale (R128A_F420V (Event 1), Rimsulfuron 5 g ai/ha): 7.0 | injury on a 0-9 point scale (R128A_F420V (Event 2), 10 g ai/ha): 7.0 | injury on a 0-9 point scale (R128A_F420V (Event 2), Rimsulfuron 1.25 g ai/ha): 6.0 | injury on a 0-9 point scale (R128A_F420V (Event 2), Rimsulfuron 2.5 g ai/ha): 7.0 | injury on a 0-9 point scale (R128A_F420V (Event 2), Rimsulfuron 5 g ai/ha): 7.0 | injury on a 0-9 point scale (R128A_F420V + Bradi_1g07930.1 (Event 1), 10 g ai/ha): 4.3 | injury on a 0-9 point scale (R128A_F420V + Bradi_1g07930.1 (Event 1), Rimsulfuron 1.25 g ai/ha): 4.0 | injury on a 0-9 point scale (R128A_F420V + Bradi_1g07930.1 (Event 1), Rimsulfuron 2.5 g ai/ha): 3.5 | injury on a 0-9 point scale (R128A_F420V + Bradi_1g07930.1 (Event 1), Rimsulfuron 5 g ai/ha): 3.3 | injury on a 0-9 point scale (R128A_F420V + Bradi_1g07930.1 (Event 2), 10 g ai/ha): 5.0 | injury on a 0-9 point scale (R128A_F420V + Bradi_1g07930.1 (Event 2), Rimsulfuron 1.25 g ai/ha): 3.0 | injury on a 0-9 point scale (R128A_F420V + Bradi_1g07930.1 (Event 2), Rimsulfuron 2.5 g ai/ha): 4.0 | injury on a 0-9 point scale (R128A_F420V + Bradi_1g07930.1 (Event 2), Rimsulfuron 5 g ai/ha): 4.5 | injury on a 0-9 point scale (wild type, 10 g ai/ha): 8.5 | injury on a 0-9 point scale (wild type, Rimsulfuron 1.25 g ai/ha): 8.0 | injury on a 0-9 point scale (wild type, Rimsulfuron 2.5 g ai/ha): 8.5 | injury on a 0-9 point scale (wild type, Rimsulfuron 5 g ai/ha): 8.3
